Results on three compounds are retold here after ChEMBL document CHEMBL3108715, “Pan-histone demethylase inhibitors simultaneously targeting Jumonji C and lysine-specific demethylases display high anticancer activities” (J Med Chem, 2014).

Data set [1] deals with HCT-116. In words: Cytotoxicity against human HCT116 cells at 50 uM after 6 hrs. Format: functional, cell-based.
Data set [2] in a line: Induction of apoptosis in human MePR cells assessed as accumulation at pre-G1 phase at 50 uM after 24 hrs by propidium iodide staining-based FACS analysis (reference value: 8.4%). The format is cell-based. In general terms: Flow cytometry measures light scatter and fluorescence of single cells or particles in a stream.
Data set [3] addresses Hypoxia-inducible factor 1-alpha inhibitor (Homo sapiens, UniProt Q9NWT6). In words: Inhibition of FIH (unknown origin) by mass spectrometry.

In general, pIC50 refers to the negative decadic logarithm of the IC50, by convention in mol/L. Low values mean a high IC50, high ones a low IC50.

pIC50: −log10 of the molar value. Activity calls are given as the source filed them. No cut-off for these calls is given here. A value given as a limit tells only on which side of the number the result lay.

Sequence of Hypoxia-inducible factor 1-alpha inhibitor (Q9NWT6 whole entry): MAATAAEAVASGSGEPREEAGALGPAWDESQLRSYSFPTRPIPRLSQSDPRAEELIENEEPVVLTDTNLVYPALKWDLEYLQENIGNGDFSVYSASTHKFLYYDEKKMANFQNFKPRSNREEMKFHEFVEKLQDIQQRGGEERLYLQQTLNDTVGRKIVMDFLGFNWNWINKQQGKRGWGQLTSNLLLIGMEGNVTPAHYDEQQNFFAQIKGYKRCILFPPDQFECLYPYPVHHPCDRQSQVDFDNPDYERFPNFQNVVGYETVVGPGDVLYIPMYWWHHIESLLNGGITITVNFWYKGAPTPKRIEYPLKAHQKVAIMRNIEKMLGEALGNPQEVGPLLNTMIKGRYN

On to `Cl.N[C@@H]1C[C@H]1c1ccc(NC(=O)c2ccc(O)c3ncccc23)cc1` (relative stereo), for which the result in data set [1] was Active. In addition, in data set [2], the Activity was determined as 4.2%. For the same compound, the pIC50 in data set [3] is 4.60.

On to `N[C@@H]1C[C@H]1c1ccc(NC(=O)c2ccnc(-c3cc(C(=O)O)ccn3)c2)cc1` (relative stereo), for which the pIC50 in data set [3] is less than 4.00.

As to `COC(=O)c1ccnc(-c2cc(C(=O)Nc3ccc([C@@H]4C[C@H]4N)cc3)ccn2)c1.Cl` (relative stereo), in data set [1], the result was Active. In addition, the Activity in data set [2] is listed as 12.8%.
